Tests used:
Test in all cases: relative viability (nuclei count vs DMSO), 5 days (fraction); higher = more cells survive
[1] = compound: CC1=C(C(=O)N2C=CSC2=N1)CCN3CCC(=C(C4=CC=CC=C4)C5=CC=C(C=C5)F)CC3 + C[C@]1(O)C[C@@H](c2nc(-c3ccc4ccc(-c5ccccc5)nc4c3)c3c(N)nccn32)C1 [Linsitinib] (partner 1 µM)
How it was run: (§1)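 For relative viability, nuclei counts in treated wells were divided by those in vehicle wells. Lung cancer cell lines had been pin-tool dosed in 1536-well plates the day after seeding and cultured for 5 days, then fixed and stained in one step (final 0.05% Triton X-100, 1% formaldehyde, 1 ug/ml Hoechst) and imaged at 4×. Doses were one drug alone or a fixed anchor-drug dose plus five library-drug doses (not always all listed) in √10 steps, and values are duplicate-plate medians.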

[2] = compound: CC1=C(C(=O)N2C=CSC2=N1)CCN3CCC(=C(C4=CC=CC=C4)C5=CC=C(C=C5)F)CC3 + Nc1nc2[nH]cc(CCc3ccc(C(=O)N[C@@H](CCC(=O)O)C(=O)O)cc3)c2c(=O)[nH]1 [Pemetrexed] (partner 0.2 µM)
How it was run: as §1

[3] = compound: CC1=C(C(=O)N2C=CSC2=N1)CCN3CCC(=C(C4=CC=CC=C4)C5=CC=C(C=C5)F)CC3 + O=C(CCCCCCC(=O)Nc1ccccc1)NO [Vorinostat] (partner 1 µM)
How it was run: as §1

[4] = compound: CC1=C(C(=O)N2C=CSC2=N1)CCN3CCC(=C(C4=CC=CC=C4)C5=CC=C(C=C5)F)CC3 + O=C(c1cc(Cc2n[nH]c(=O)c3ccccc23)ccc1F)N1CCN(C(=O)C2CC2)CC1 [Olaparib] (partner 8 µM)
How it was run: as §1

| Cell Line | relative viability ([1]; first compound 0.08 µM) | relative viability ([1]; first compound 0.253 µM) | relative viability ([1]; first compound 0.8 µM) | relative viability ([1]; first compound 2.53 µM) | relative viability ([1]; first compound 8 µM) | relative viability ([2]; first compound 0.08 µM) | relative viability ([2]; first compound 0.8 µM) | relative viability ([2]; first compound 2.53 µM) | relative viability ([2]; first compound 8 µM) | relative viability ([3]; first compound 0.08 µM) | relative viability ([3]; first compound 0.8 µM) | relative viability ([3]; first compound 2.53 µM) | relative viability ([3]; first compound 8 µM) | relative viability ([4]; first compound 0.08 µM) | relative viability ([4]; first compound 0.8 µM) | relative viability ([4]; first compound 2.53 µM) | relative viability ([4]; first compound 8 µM) | relative viability ([2]; first compound 0.253 µM) | relative viability ([3]; first compound 0.253 µM) | relative viability ([4]; first compound 0.253 µM) |
| --- | --- | --- | --- | --- | --- | --- | --- | --- | --- | --- | --- | --- | --- | --- | --- | --- | --- | --- | --- | --- |
| PC-3 [JPC-3] | 0.884 | 0.914 | 1.01 | 1.04 | 0.893 | 1.16 | 0.995 | 1.01 | 1.02 | 0.746 | 0.748 | 0.879 | 0.666 | 1.04 | 1.21 | 1.31 | 1.05 |  |  |  |
| PC-14 | 0.904 | 1.07 | 1.02 | 0.947 | 0.734 | 0.153 | 0.133 | 0.153 | 0.137 | 0.677 | 0.866 | 0.762 | 0.623 | 0.209 | 0.27 | 0.251 | 0.253 | 0.138 | 0.901 | 0.223 |
| RERF-LC-KJ | 0.879 | 0.933 | 0.883 | 0.832 | 0.672 | 0.502 | 0.439 | 0.486 | 0.481 | 0.617 | 0.793 | 0.716 | 0.48 | 0.968 | 0.845 | 0.89 | 0.706 | 0.476 | 0.658 | 0.819 |
| SK-LU-1 | 1.17 | 0.93 | 1.15 | 1.38 | 0.814 | 1.12 | 0.995 | 1.13 | 0.597 | 0.773 | 0.75 | 0.783 | 0.713 | 0.442 | 0.459 | 0.429 | 0.402 | 0.942 | 0.708 | 0.45 |
| SK-MES-1 | 1.1 | 1.2 | 1.08 | 1.03 | 0.789 | 1.11 | 0.97 | 1.02 | 0.829 | 1.1 | 1.29 | 1.17 | 0.698 | 0.961 | 0.725 | 0.827 | 0.64 | 1.05 | 1.18 | 0.583 |
| SW 1573 | 0.843 | 0.804 | 0.795 | 0.835 | 0.721 | 0.998 | 0.786 | 0.933 | 0.578 | 0.808 | 1.01 | 0.795 | 0.423 | 0.502 | 0.465 | 0.625 | 0.357 | 0.854 | 0.697 | 0.323 |
| UMC-11 | 1.06 | 0.972 | 1.04 | 1.33 | 0.824 | 0.914 | 0.8 | 0.945 | 0.632 | 0.38 | 0.354 | 0.333 | 0.405 | 0.44 | 1.05 | 0.307 | 0.342 |  |  |  |

— the supplement of paper PMC10307832
